Starred links: 1 amine or outer side, 2 acyl side, 3 side chain; linkers in the order of their positions; H or OH if unused. Positions of bridges follow the written chain, without caps; N, C: chain ends. Non-standard residues stand in square brackets, D forms with d. Residues, ends and D or L forms follow the SMILES beside them. Chains are numbered I, II in the order given. Actinocin(9to1) = Cc1c2oc3c(C)ccc(C(=O)[*:1])c3nc-2c(C(=O)[*:2])c(N)c1=O; NMeV = CN[C@H](C(=O)O)C(C)C; Sar = CNCC(=O)O
What was measured:
NIH 3T3 cells [1] = experiment: long-term growth inhibition assays (cytostatic and cytotoxic effects), cells carrying anti-khcs GSE vs control; type: cell-based, mouse; settings: for resistance or sensitivity of GSE-carrying cells to the drug, long-term assay: four days in drug, then two or six days without drug, anti-khcs cells vs control; for sensitivity of anti-khcs GSE cells to the drug (surviving cells as percentage of growth without drug): 2x10^4 cells per dish, five days in drug, FIGS. 12A and 12B
Experimental: Cells were incubated with the drugs for 4 days, followed by 2 or […] in drug-free media, as indicated. Cell growth, presented in arbitrary units, was evaluated by methylene blue staining.
To further characterize the nature of drug resistance conferred by anti-khcs, the above-described short-term growth inhibition assays were followed by long-term growth inhibition assays which measured both the cytostatic and the cytotoxic effects of different drugs. These assays were carried out by incubating the cells for four days in the presence of the drugs, followed by either two or six days in the absence of the drug, to allow for programmed cell death, which is frequently associated with recovery from drug-induced inhibition (Kung et al., 1990, Cancer Res. 50: 7307-7317).
Thus, in the experiment shown in FIGS. 12A and 12B, NIH 3T3 cells carrying the anti-khcs GSE and control cells without the GSE were plated at a density of 2×10^4 per culture dish and grown for five days in concentrations of either colchicine or vinblastine. The cells were then fixed and stained, and the number of surviving cells determined and shown as a percentage of cell growth in the absence of drug.

NIH 3T3 cells [2] = experiment: dynamics of cell growth during and after drug treatment, anti-khcs GSE cells vs control; type: cell-based, mouse; settings: for effect of the drug in continuous presence / cell death after removal of the drug: 250 ng/mL etoposide, 20 ng/mL camptothecin, 40 ng/mL colchicine; for effect of anti-khcs GSE on the growth-inhibitory effect of the drug: 5 or 11 days continuous exposure, anti-khcs cells vs control; for cell death after removal of the drug: control cells; for cell death after removal of the drug / effect of anti-khcs GSE on cell death after release from the drug: drug removed after 5 days; for overall change in drug resistance conferred by anti-khcs GSE, release vs continuous exposure: long-term, 11 days
Experimental: Cell growth was measured as described for FIGS. 12A and 12B. Cells were plated and one day later (indicated by the first arrow) the indicated drugs were added at concentrations as described. Four days later (indicated by the second arrow), the drugs were removed from some of the plates. Solid lines indicate cell growth in the continuous presence of the drug, and broken lines indicate cell growth after removal of the drug.
In these experiments (shown in FIGS. 13A through 13D), NIH 3T3 cells were treated with the corresponding drugs for 5 days, and then incubated for additional 6 days either in the presence or in the absence of the drug. […] After 11 days of drug exposure the total cell number in the etoposide- or camptothecin-treated populations of control cells was a little lower than after 5 days of drug exposure, but in the colchicine-treated control cell population a slow cell growth was still detectable. In the experiments where the drug was removed after 5 days, cell growth was initially activated for all three drugs.
The expression of the anti-khcs GSE had different effects on the growth inhibition and recovery-associated cell death induced by these drugs.

NIH 3T3 cells [3] = experiment: short-term (4-day) growth inhibition assay, methylene blue staining, cells carrying anti-khcs GSE vs insert-free vector control; type: cell-based, mouse; settings: NIH 3T3 infected with anti-khcs virus vs insert-free vector; 4 days drug exposure
Experimental: Drug concentrations are given in ng/mL.
A 1:1 mixture of ecotropic and amphotropic packaging cells was transfected with retroviral vector pLNCX carrying the anti-khcs GSE using a standard calcium phosphate procedure. […] This virus-containing supernatant was used to infect NIH 3T3 cells, 10 times with 12 hour intervals. Control cells were infected in parallel with the insert-free vector virus obtained by the same procedure. […] DNA from the infected cells was analyzyed by Southern blot hybridization with a virus-specific probe.
The infected cell population described in Example 7 were analyzed for resistance to several anticancer drugs by a growth inhibition assay. For this assay, 10^4 cells per well were plated in 12-well plated and exposed to increasing concentrations of different drugs for 4 days. Relative cell numbers were measured by the methylene blue staining assay (Perry et al., 1992, Mutation Res. 286: 189-197). […] All of these drugs are known to induce DNA damage, albeit by different mechanism.

NIH 3T3 cells [4] = experiment: growth parameters of multiply-infected cells; type: cell-based, mouse; settings: multiple integrated provirus copies; normalised after several passages
Description: A 1:1 mixture of ecotropic and amphotropic packaging cells was transfected with retroviral vector pLNCX carrying the anti-khcs GSE using a standard calcium phosphate procedure. Two weeks later, the virus titer, as measured by the formation of G418- resistance NIH 3T3 colonies, reached >10^6 infectious units per mL as a result of “ping-pong” infection (see Bodine et al., 1990, Proc. Natl. Acad. Sci. USA 87: 3738-3742). This virus-containing supernatant was used to infect NIH 3T3 cells, 10 times with 12 hour intervals. Control cells were infected in parallel with the insert-free vector virus obtained by the same procedure. […] DNA from the infected cells was analyzyed by Southern blot hybridization with a virus-specific probe.
At this stage, the cells were frozen and used for the experiments described below.

NIH 3T3 cells [5] = experiment: etoposide selection after retroviral transduction of GSEs; type: cell-based, mouse; settings: recloned proviral inserts in LNCX vector
Experimental: This selection was carried out directly on virus-producing packaging cells, in the expectation that cells whose resistant phenotype is caused by the GSE expression will produce virus particles carrying such a GSE. The mixture of amphotropic and ecotropic packaging cells was transfected with the cDNA library in the LNCX vector, prepared according to Example 1, and the virus was allowed to spread through the population for 9 days.
The proviral inserts contained in the etoposide-selected NIH 3T3 cells were analyzed by PCR. […] Individual PCR-amplified fragments were recloned into the LNCX vector in the same position and orientation as in the original plasmid, as illustrated in FIG. 4C. […] These GSEs wee named anti-khcs, VPA and VP9-11.

[6] = test system: primary mouse embryo fibroblasts (MEF); experiment: life span / immortalization of senescent primary fibroblasts after infection with GSE virus; type: cell-based
Experimental: The virus carrying the anti-khcs GSE was treated for the ability to increase the life span of primary mouse embryo fibroblasts (MEF). MEF were prepared from 10 day old mouse embryos by a standard trypsinization procedure and senescent cells were frozen at different passages prior to crisis. Senescent MEF, two weeks before crisis, were infected with recombinant retroviruses carrying LNCX vector either without an insert or with anti-khcs.

[7] = test system: primary human fibroblasts; experiment: life span of primary human skin fibroblasts after infection with GSE virus; type: cell-based
Experimental: Primary human fibroblasts, derived from human skin, were obtained from the Aging Cell Repository of the National Institutes of Aging. The cells were grown in DMEM with 20% fetal calf serum supplemented with twice the concentration of amino acids and vitamins normally used to supplement normal human skin fibroblast growth in culture. Cells at the fifth passage were infected with either the control pLNCX virus or the virus carrying mouse anti-khcs GSE (produced as described above in Example 3).

NIH 3T3 cells [8] = experiment: etoposide resistance with GSE under IPTG-inducible promoter; type: cell-based, mouse; settings: 5 mM IPTG; IPTG-dependent; vs insert-free vector
Description: The components of this system include an enhancer-dependent promoter, combined in cis with multiple repeats of the bacterial lac operator, and a gene expressing LAP265, an artificial regulatory protein derived from the lac repressor and a mammalian transcriptional activator. The anti-khcs GSE was cloned into the plasmid pX6.CLN, which contains the inducible promoter used by Baim et al., supra (a gift of Dr. T. Shenk) which expresses the inserts from an enhancerless SV40 early gene promoter supplemented with 21 repeats of the lac operator sequence. The resulting plasmid, which contains no selectable markers, was co-transfected into NIH 3T3 cells together with the LNCX plasmid carrying the neo gene.

COc1cccc2c1C(=O)c1c(O)c3c(c(O)c1C2=O)C[C@@](O)(C(=O)CO)C[C@@H]3O[C@H]1C[C@H](N)[C@H](O)[C@H](C)O1 [Adriamycin, doxorubicin]
resistance or sensitivity of GSE-carrying cells to the drug, long-term assay (NIH 3T3 cells [1]): resistant

COc1cc([C@@H]2c3cc4c(cc3[C@@H](O[C@@H]3O[C@@H]5CO[C@@H](C)O[C@H]5[C@H](O)[C@H]3O)[C@H]3COC(=O)[C@H]23)OCO4)cc(OC)c1O [etoposide]
resistance or sensitivity of GSE-carrying cells to the drug, long-term assay (NIH 3T3 cells [1]): resistant | effect of the drug in continuous presence (NIH 3T3 cells [2]): growth inhibition but little detectable cell death | effect of anti-khcs GSE on the growth-inhibitory effect of the drug (NIH 3T3 cells [2]): decreased the growth-inhibitory effect of the drug to the same, relatively small extent | cell death after removal of the drug (NIH 3T3 cells [2]): extensive cell death | effect of anti-khcs GSE on cell death after release from the drug (NIH 3T3 cells [2]): decreased the amount of cell death | overall change in drug resistance conferred by anti-khcs GSE, release vs continuous exposure (NIH 3T3 cells [2]): much more pronounced after release from the drug

COc1cc2c(c(OC)c1OC)-c1ccc(OC)c(=O)cc1[C@@H](NC(C)=O)CC2 [colchicine]
sensitivity of anti-khcs GSE cells to the drug (surviving cells as percentage of growth without drug) (NIH 3T3 cells [1]): hypersensitivity | resistance or sensitivity of GSE-carrying cells to the drug, long-term assay (NIH 3T3 cells [1]): hypersensitive | change in resistance to the cytostatic effects of the drug induced by anti-khcs GSE (NIH 3T3 cells [3]): no increase in resistance was observed | effect of the drug in continuous presence (NIH 3T3 cells [2]): growth inhibition but little detectable cell death | effect of anti-khcs GSE on the growth-inhibitory effect of the drug (NIH 3T3 cells [2]): more susceptible to the growth-inhibitory effect | cell death after removal of the drug (NIH 3T3 cells [2]): only limited cell death

CC[C@]1(O)C[C@@H]2CN(CCc3c([nH]c4ccccc34)[C@@](C(=O)OC)(c3cc4c(cc3OC)N(C)[C@H]3[C@@](O)(C(=O)OC)[C@H](OC(C)=O)[C@]5(CC)C=CCN6CC[C@]43[C@@H]65)C2)C1 [vinblastine]
sensitivity of anti-khcs GSE cells to the drug (surviving cells as percentage of growth without drug) (NIH 3T3 cells [1]): hypersensitivity | resistance or sensitivity of GSE-carrying cells to the drug, long-term assay (NIH 3T3 cells [1]): hypersensitive

CC[C@@]1(O)C(=O)OCc2c1cc1n(c2=O)Cc2cc3ccccc3nc2-1 [camptothecin]
effect of the drug in continuous presence (NIH 3T3 cells [2]): growth inhibition but little detectable cell death | effect of anti-khcs GSE on the growth-inhibitory effect of the drug (NIH 3T3 cells [2]): small decrease of the growth-inhibitory effect | cell death after removal of the drug (NIH 3T3 cells [2]): extensive cell death | effect of anti-khcs GSE on cell death after release from the drug (NIH 3T3 cells [2]): slight increase in cell death | overall change in drug resistance conferred by anti-khcs GSE, release vs continuous exposure (NIH 3T3 cells [2]): no significant long-term difference

Cc1c2oc3c(C)ccc(C(=O)N[C@@H]4C(=O)N[C@H](C(C)C)C(=O)N5CCC[C@H]5C(=O)N(C)CC(=O)N(C)[C@@H](C(C)C)C(=O)O[C@@H]4C)c3nc-2c(C(=O)N[C@@H]2C(=O)N[C@H](C(C)C)C(=O)N3CCC[C@H]3C(=O)N(C)CC(=O)N(C)[C@@H](C(C)C)C(=O)O[C@@H]2C)c(N)c1=O [actinomycin D] (I: T[dV]P[Sar][NMeV] / II: T[dV]P[Sar][NMeV]; ester I:1-I:C, II:1-II:C; linker I:N-II:N via Actinocin(9to1))
change in resistance to the cytostatic effects of the drug induced by anti-khcs GSE (NIH 3T3 cells [3]): no increase in resistance was observed

B1: anti-khcs: genetic suppressor element encoding antisense RNA for mouse kinesin heavy chain gene khcs (SEQ.ID.No.:3), in LNCX retroviral vector (nucleic acid)
antisense: CTTGATCCCTTCTGGTTGATGCCAGAAGCTCTTCCTGATCCAGCATTTGTATCTTCAATTTCTCTACCAATTGGCTTTGTTGGTTAATCTCTTCATCCTTGTCATCAAGTTGTTTATACAATTTAGCAAGTTCTTCTTCACACTTTCTTCTTTCAGCATCGGTAAAACTACCAGCCATTCCGACTGCAGCAGCTGGTTTATCACTGGTAATAGCAATATCTTTATCCGCTGTGAAGGCTTCCAAATTAGCTTTCTCTTTGTCAAACTGCTCATCAATAGGCACTGTCTCCCCGTTACGCCAACGGTTTAGCTCGTTTTCCAGCCACT
modifications: in LNCX retroviral vector
growth rate and plating efficiency of freshly-obtained multiply-infected cells (NIH 3T3 cells [4]): decreased growth rate and plating efficiency | ability to confer etoposide resistance after retroviral transduction (NIH 3T3 cells [5]): induce etoposide resistance | features of neoplastic transformation in post-crisis cells ([6]; microscopic): no microscopically visible features of neoplastic transformation | proportion of cells surviving the crisis ([6]; relative to uninfected MEF or control LNCX virus, two weeks after crisis): great increase | additional passages survived ([7]; after control cells went into crisis): at least five | growth when control cells went into crisis ([7]; infected at fifth passage, four passages later): continued to grow | etoposide resistance of transfectants (NIH 3T3 cells [8]): clearly increased etoposide resistance

Reference: patent US6537754B1, “Association of kinesin with sensitivity to chemotherapeutic drugs” (Board of Trustees of the University of Illinois, priority 1990, dated 2003)
